Assay results from patent publication US20050123906A1, “Protein modulation” (priority 2003, published 2005).
Non-standard residues stand in square brackets, D forms with d. Residues, ends and D or L forms follow the SMILES beside them. Nle = CCCC[C@H](N)C(=O)O

What was measured:
CFP-APO = assay: Vif-mediated depletion of CFP-APO with proteasome inhibition (immuno-blot, confocal microscopy); assay type: cell-based, human; conditions: for CFP-APO levels in the absence of Vif: 293T cells, pNL-A1Δvif
Protocol: (§1) 293T cells were maintained in a humidified incubator (5% CO2) at 37° C. in Dulbecco's modified Eagle's medium (DMEM; Invitrogen) supplemented with 10% fetal bovine serum, 100 units/ml penicillin and 100 μg/ml streptomycin (Invitrogen). Qiagen-purified plasmid DNA (Qiagen, Valencia, Calif.) was transfected into 293T cells using Lipofectaminem 2000 lipofection agent (Invitrogen). For Western blot and immunoprecipitation experiments, 293T cells were transfected in either 6 or 12 well plates when the cells were ˜60% confluent. The amount of vector used and the molar ratio of vector for co-transfection experiments are described in the Results and figure legends. When necessary, final DNA amounts were made equal by the addition of pGEM (Promega). For live imaging and immuno-localization, 293T cells were seeded into poly-d-lysine coated 35 mm glass bottom culture dishes and transfected when the cells were ˜50% confluent. For proteasome inhibition studies, culture media containing 100 μM of N-Acetyl-Leu-Leu-Nle-CHO (ALLN, Calbiochem, La Jolla, Calif.) or the equivalent volume of DMSO was added to cells 12 hours prior to harvesting or imaging 36 hours post-transfection.
(§2) The level of Vif-mediated depletion of APOBEC3G was further determined over a broad range of Vif (pNL-A1):APOBEC3G (pCFP-APO) vector ratios ranging from 1:1 to 1:0.0625, where 1 refers to 130 fmoles of vector. The level of depletion was determined by comparing the steady-state levels of CFP-APO when co-expressed with Vif to the equivalent Δvif control (pNL-A1Δvif). […]
To prepare total protein lysates, each well of a 6- or 12-well plate was washed once in phosphate buffered saline (PBS, Invitrogen) and then lysed in either 400 or 200 μl, respectively, of Mammalian Protein Extraction Reagent (M-PER, Pierce, Rockford, Ill.) supplemented with 0.5% (v/v) Triton-X 100 (Pierce), 150 mM NaCl, 5 mM EDTA, and a 1/100 (v/v) dilution of a protease inhibitor cocktail for mammalian tissue for 30 minutes at 4° C. with gentle rotation. […] Protein concentration was determined by Dc protein assay (Bio-Rad, Hercules, Calif.). […]

Vif = assay: Steady-state levels of Vif with proteasome inhibition (immuno-blot); assay type: cell-based, HIV-1; conditions: 293T cells, presence or absence of CFP-APO, 100 μM ALLN 12 hours
Protocol: as §1, with “For proteasome inhibition studies, culture media containing 100 μM of N-Acetyl-Leu-Leu-Nle-CHO (ALLN, Calbiochem, La Jolla, Calif.) or the equivalent volume of DMSO was added to cells 12 hours prior to harvesting or imaging 36 hours post-transfection.” left out
as §2

CCCC[C@@H](C=O)NC(=O)[C@H](CC(C)C)NC(=O)[C@H](CC(C)C)NC(C)=O [ALLN, N-Acetyl-Leu-Leu-Nle-CHO] (Ac-Leu-Leu-[Nle]-aldehyde)
CFP-APO levels by confocal microscopy (CFP-APO; 293T cells expressing Vif, pNL-A1:pCFP-APO 1:0.25, proteasome inhibition): elevated | CFP-APO levels in the absence of Vif (CFP-APO; all ratios except 1:0.0625, 100 μM ALLN 12 hours): not significantly affected | CFP-APO levels in the absence of Vif (CFP-APO; lowest pCFP-APO input (1:0.0625 ratio), 100 μM ALLN 12 hours): modest reduction in expression | Steady-state levels of Vif (Vif): elevated the steady-state levels of Vif
